# Measured values from patent US5972933A, “Method of treating microbial infections” (Ed. Geistlich Sohne AG Fur Chemische Industrie, priority 1998, dated 1999).
# “Also recorded” adds a separate entry of the source. Like-named read-outs stand apart in the source and are kept apart here.
# What was measured:
# [1] = cited from earlier work
# TNF production = TNF production in human blood / antibiotic-treated cultures; format: cell-based
# From the text: Taurolidine and/or Taurultam prevent over-production of cytokines in the patient by monocytes of the blood.
# E. faecium = assay: Two percent taurolidine solution tested against bacteria, E. faecium (Example 5); format: cell-based; details: Enterococcus faecium, 48 h, 5×10^4 CFU/well, one line per sample (strain)
# Description: (§1) Two percent taurolidine solution was tested against various bacteria at 5×10^4 CFU/well, according to Manual of Clinical Microbiology, 6th edition, P. R. Murray et al., pp. 1334-1335.
# bacteria and fungi [2] = assay: Antimicrobial activity (general statements); format: cell-based
# Enterococci = assay: Taurolidine in vitro susceptibility, Enterococci overall (Example 4); format: cell-based, Enterococcus faecium and Enterococcus faecalis
# From the text: (§2) The in vitro susceptibility to taurolidine of a panel of clinical isolates and reference strains of Enterococcus faecium (n=20,7 strains vancomycin resistant) and Enterococcus faecalis (n-53,5 strains vancomycin resistant) has been examined. […] In all cases, the Minimum Bacteriocidal Concentration (MBC) of taurolidine was within 2 dilutions of the corresponding value for MIC confirming a bactericidal mode of action. In vitro resistance to taurolidine was not observed.
# bacteria and fungi [3] = details: known antimicrobial substances; cited from earlier work
# E. faecalis = assay: Two percent taurolidine solution tested against bacteria, E. faecalis (Example 5); format: cell-based; details: Enterococcus faecalis, 24 h, 5×10^4 CFU/well, one line per sample (strain)
# Description: as §1
# Enterococcus faecium = assay: Taurolidine in vitro susceptibility, E. faecium (Example 4); format: cell-based
# From the text: as §2
structure (smiles),measurement,setting,value
O=S1(=O)CCN(CN2CCS(=O)(=O)NC2)CN1 [Taurolidine],half-life in vivo,[1],short half-life in vivo
same,TNF production,TNF production; added to antibiotic-treated cultures,prevents a rise in TNF production
same,neutralization of released endotoxins,TNF production; antibiotic-treated cultures,nearly complete neutralization of released endotoxins
same,MIC,E. faecium,250 µg/mL
same,rate of bacterial killing,bacteria and fungi [2],kills bacteria slowly
same,resistance development,bacteria and fungi [2],Resistance has not been observed either in vivo or in vitro; also recorded: no resistance development by microbes has been observed
same,in vitro effectiveness against bacterial strains,"bacteria and fungi [2]; in vitro, including multi-resistant strains, VRE and MRSA",effective against all gram negative and gram positive bacterial strains tested to-date
same,in vitro effectiveness against antibiotic-resistant pathogens,"bacteria and fungi [2]; in vitro, pathogens resistant to methicillin and vancomycin",fully effective in vitro
same,antifungal activity,bacteria and fungi [2]; yeast-like and filamentous fungi,useful activity against most yeast-like and filamentous fungi
same,difference in degree of susceptibility between E. faecalis and E. faecium,Enterococci,no difference in degree of susceptibility
same,In vitro resistance to taurolidine,Enterococci; E. faecium and E. faecalis,not observed
same,MBC relative to corresponding MIC,"Enterococci; all cases, bactericidal mode of action",≤ 2 dilutions
same,difference in MICs or MBCs between strains,"Enterococci; vancomycin-sensitive or vancomycin-resistant, various locations across Europe",No differences were noted
same,antimicrobial spectrum,bacteria and fungi [3],"broad-spectrum activity against aerobic and anaerobic bacteria, mycobacteria and fungi"
same,MBC,E. faecalis,500 µg/mL
same,MIC,"Enterococcus faecium; E. faecium strains, read-out: MIC range",95 to 375 µg/mL
same,MBC,"Enterococcus faecium; E. faecium, VAN R strains, read-out: MBC, Avg.",446 µg/mL
same,MBC,"Enterococcus faecium; E. faecium, VAN R strains, read-out: MBC, Max.",500 µg/mL
same,MBC,"Enterococcus faecium; E. faecium, VAN R strains, read-out: MBC, Mean",446 µg/mL
same,MBC,"Enterococcus faecium; E. faecium, VAN R strains, read-out: MBC, Median",500 µg/mL
same,MBC,"Enterococcus faecium; E. faecium, VAN R strains, read-out: MBC, Min.",375 µg/mL
same,MBC,"Enterococcus faecium; E. faecium, VAN R strains, read-out: MBC, Mode",500 µg/mL
same,MIC,"Enterococcus faecium; E. faecium, VAN R strains, read-out: MIC, Avg.",161 µg/mL
same,MIC,"Enterococcus faecium; E. faecium, VAN R strains, read-out: MIC, Max.",250 µg/mL
same,MIC,"Enterococcus faecium; E. faecium, VAN R strains, read-out: MIC, Mean",161 µg/mL
same,MIC,"Enterococcus faecium; E. faecium, VAN R strains, read-out: MIC, Median",95 µg/mL
same,MIC,"Enterococcus faecium; E. faecium, VAN R strains, read-out: MIC, Min.",95 µg/mL
same,MIC,"Enterococcus faecium; E. faecium, VAN R strains, read-out: MIC, Mode",95 µg/mL
same,MBC,"Enterococcus faecium; E. faecium, VAN S strains, read-out: MBC, Avg.",666 µg/mL
same,MBC,"Enterococcus faecium; E. faecium, VAN S strains, read-out: MBC, Max.",1000 µg/mL
same,MBC,"Enterococcus faecium; E. faecium, VAN S strains, read-out: MBC, Mean",666 µg/mL
same,MBC,"Enterococcus faecium; E. faecium, VAN S strains, read-out: MBC, Median",750 µg/mL
same,MBC,"Enterococcus faecium; E. faecium, VAN S strains, read-out: MBC, Min.",500 µg/mL
same,MBC,"Enterococcus faecium; E. faecium, VAN S strains, read-out: MBC, Mode",750 µg/mL
same,MIC,"Enterococcus faecium; E. faecium, VAN S strains, read-out: MIC, Avg.",323 µg/mL
same,MIC,"Enterococcus faecium; E. faecium, VAN S strains, read-out: MIC, Max.",375 µg/mL
same,MIC,"Enterococcus faecium; E. faecium, VAN S strains, read-out: MIC, Mean",323 µg/mL
same,MIC,"Enterococcus faecium; E. faecium, VAN S strains, read-out: MIC, Median",375 µg/mL
same,MIC,"Enterococcus faecium; E. faecium, VAN S strains, read-out: MIC, Min.",125 µg/mL
same,MIC,"Enterococcus faecium; E. faecium, VAN S strains, read-out: MIC, Mode",375 µg/mL
same,MBC,"Enterococcus faecium; E. faecium, all strains, read-out: MBC, Avg.",581 µg/mL
same,MBC,"Enterococcus faecium; E. faecium, all strains, read-out: MBC, Max.",1000 µg/mL
same,MBC,"Enterococcus faecium; E. faecium, all strains, read-out: MBC, Mean",581 µg/mL
same,MBC,"Enterococcus faecium; E. faecium, all strains, read-out: MBC, Median",500 µg/mL
same,MBC,"Enterococcus faecium; E. faecium, all strains, read-out: MBC, Min.",375 µg/mL
same,MBC,"Enterococcus faecium; E. faecium, all strains, read-out: MBC, Mode",500 µg/mL
same,MIC,"Enterococcus faecium; E. faecium, all strains, read-out: MIC, Avg.",260 µg/mL
same,MIC,"Enterococcus faecium; E. faecium, all strains, read-out: MIC, Max.",375 µg/mL
same,MIC,"Enterococcus faecium; E. faecium, all strains, read-out: MIC, Mean",260 µg/mL
